Where two headings read alike, the source gives them in different places.
Columns and labels:
[1] = Solubility test in common solvents (visual dissolution); type: physicochemical; details: 25° C.±5° C., observed within 30 minutes
Procedure: The sample that has been ground into fine powder was weighed and added to a certain volume of solvent (ambient temperature: 25° C.±5° C.), shaken strongly for 30 seconds every 5 minutes, and the dissolution was observed within 30 minutes. If there were no visually visible solute particles or droplets, the sample was regarded as completely dissolved. According to this method, the dissolution of crystal form A of the hydrochloride hydrate of the compound shown in formula I and the free base form of the compound shown in formula I in common solvents was observed, and the results are shown in Table 3.

TYK2 = molecular target: T1, TYK2 (Homo sapiens, UniProt P29597); test: HTRF in vitro enzyme activity biochemical assay, TYK2; details: 1 mM ATP, 100 ng/mL TYK2
T1 construct: purchased Carna Biosciences, Inc. 08-147
T1 sequence (P29597 871-1187 limits assumed): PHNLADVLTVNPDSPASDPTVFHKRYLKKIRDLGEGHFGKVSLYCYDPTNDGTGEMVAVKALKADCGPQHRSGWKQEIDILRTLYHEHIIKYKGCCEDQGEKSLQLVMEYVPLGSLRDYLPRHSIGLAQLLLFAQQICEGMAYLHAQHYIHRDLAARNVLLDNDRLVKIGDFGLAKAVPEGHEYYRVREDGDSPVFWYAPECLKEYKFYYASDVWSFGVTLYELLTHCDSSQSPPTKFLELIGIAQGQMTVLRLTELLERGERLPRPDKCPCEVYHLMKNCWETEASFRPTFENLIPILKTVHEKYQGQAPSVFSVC
Procedure: (§1) Then, the concentration of the compound diluent was further diluted to 2.5-fold of the final test concentration with the kinase reaction buffer to obtain a compound solution to be tested.
(§2) The enzymatic reaction was initiated by adding a mixture of 2 μL of substrate and 2 μL of ATP prepared in kinase reaction buffer. […] The percentage of inhibition was calculated according to the formula: percentage of inhibition=100%−ratio value of a treated compound/ratio value of a treated DMSO carrier (DMSO carrier was a blank control group without drugs).
(§3) A dose-response curve was generated, and IC50 was calculated by non-linear S-shaped curve fitting using GraphPad Prism software.

JAK2 = molecular target: T2, JAK2 (Homo sapiens, UniProt O60674); test: HTRF in vitro enzyme activity biochemical assay, JAK2; details: 1 mM ATP, 6 ng/mL JAK2
T2 construct: purchased Carna Biosciences, Inc. 08-045
Procedure: as §1, §2, §3

[2] = Stability test in stable chamber (temperature and humidity); type: physicochemical; details: for Content of compound shown in formula I: HPLC
Procedure: Whether the temperature and humidity have an impact on the stability of the crystal form A of the hydrochloride hydrate of the compound shown in formula I was tested: […]

Single dose PK study = type: in vivo; details: female SD rats, single oral dose 3 mg/kg, 0.5% CMC-Na suspension, plasma
Procedure: Two groups of SD rats (3 females in each group) were given a single oral dose of 3 mg/kg free base of the compound shown in formula I and a single oral dose of 3 mg/kg crystal form A of hydrochloride hydrate of the compound shown in formula I, respectively. The drug was administered as a 0.5% CMC-Na suspension. Samples were taken at different times until 24 hours, and the drug concentration of the compound shown in formula I in plasma was analyzed by LC-MS/MS method, and the final calculation results are shown in Table 8.
Chromatographic Conditions of LC-MS/MS Method for Compound Shown in Formula I:
• instrument model, SHIMADZU LC-30AD liquid phase system; chromatographic column, ACQUITY UPLC® BEH C18 (2.1×50 mm, 1.7 μm); column temperature, 40° C.; injection volume, 1 μL; flow rate of 0.6 mL/min; run time of 6 min; • the mobile phase gradient settings are shown in Table 5.
Instrument model, AB SCIEX TRIPLE QUAD 6500 mass spectrometer; ion source, electrospray (ESI); ionization mode, positive ion scanning; multi-ion (MRM) ion pairs are shown in Table 6; instrument parameters are shown in Table 7.

Hygroscopicity study = type: physicochemical; details: 25° C./75%-RH for 5 days
JAK1 = molecular target: T3, JAK1 (Homo sapiens, UniProt P23458); test: HTRF in vitro enzyme activity biochemical assay, JAK1; details: 1 mM ATP, 500 ng/mL JAK1
T3 construct: purchased Invitrogen PV4774
Procedure: as §1, §2, §3

[3] = Comparison of thermodynamic stability of crystal forms in saturated ethanol/water solution; type: physicochemical; details: ethanol/water 9:1 saturated solution, 50° C., stirred 24 hours
Procedure: Crystal form A, crystal form E and crystal form F were respectively dissolved in a mixed solvent of ethanol/water (volume ratio=9:1) to prepare a saturated solution. The saturated solution was heated to 50° C., and 10 mg of crystal form A, crystal form E and crystal form F were respectively added with stirring. The mixture was kept at 50° C., stirred for 24 hours, then filtered, and the XRPD of the resulting crystals was respectively determined (XRPD patterns of crystals precipitated by adding crystal forms A, E and F are shown in FIGS. 10, 11 and 12, respectively).

JAK3 = molecular target: T4, JAK3 (Homo sapiens, UniProt P52333); test: HTRF in vitro enzyme activity biochemical assay, JAK3; details: 1 mM ATP, 37 ng/mL JAK3
T4 construct: purchased Carna Biosciences, Inc. 08-046
Procedure: as §1, §2, §3

[4] = 40° C./60%-RH and 25° C./75%-RH, after 30 days
[5] = listed as Free base of compound shown in formula I

T3 sequence (P23458 866-1154 limits assumed): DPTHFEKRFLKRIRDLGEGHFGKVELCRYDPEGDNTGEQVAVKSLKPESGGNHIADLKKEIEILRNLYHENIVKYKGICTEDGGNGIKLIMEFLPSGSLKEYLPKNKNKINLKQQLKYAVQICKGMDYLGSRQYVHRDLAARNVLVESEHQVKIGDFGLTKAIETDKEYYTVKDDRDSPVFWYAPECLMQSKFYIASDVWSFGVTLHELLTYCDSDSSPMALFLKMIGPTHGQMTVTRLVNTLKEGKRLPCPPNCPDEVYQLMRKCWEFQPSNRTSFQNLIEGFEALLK
T4 sequence (P52333 795-1124 limits assumed): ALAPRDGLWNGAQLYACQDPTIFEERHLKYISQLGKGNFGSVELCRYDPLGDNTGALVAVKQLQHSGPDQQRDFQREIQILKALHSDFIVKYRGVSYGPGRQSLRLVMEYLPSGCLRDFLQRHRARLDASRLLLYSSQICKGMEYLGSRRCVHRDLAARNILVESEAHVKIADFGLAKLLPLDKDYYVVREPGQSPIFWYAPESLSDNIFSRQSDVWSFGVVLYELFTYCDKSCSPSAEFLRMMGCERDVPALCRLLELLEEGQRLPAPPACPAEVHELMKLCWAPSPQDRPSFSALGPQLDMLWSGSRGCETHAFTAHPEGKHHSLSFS
T2 sequence (O60674 826-1132 limits assumed): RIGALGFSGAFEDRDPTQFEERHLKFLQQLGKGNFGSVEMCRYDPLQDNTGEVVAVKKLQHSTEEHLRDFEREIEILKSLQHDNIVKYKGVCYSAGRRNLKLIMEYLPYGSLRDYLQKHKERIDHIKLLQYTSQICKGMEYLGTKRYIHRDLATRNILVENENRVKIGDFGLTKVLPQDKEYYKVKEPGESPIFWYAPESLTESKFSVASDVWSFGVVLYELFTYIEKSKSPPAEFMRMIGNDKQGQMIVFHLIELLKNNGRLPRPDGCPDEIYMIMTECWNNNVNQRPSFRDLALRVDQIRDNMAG

For `O=C(Nc1cn2c(-c3ccc(CN4CCS(=O)(=O)CC4)cc3F)cccc2n1)C1CC1` [Crystal form A], the Solubility in ethanol [1] was “Soluble”, the Solubility in methanol [1] was “Very soluble” and the “Solubility in simulated gastric juice” value [1] was “Sparingly soluble”. The Solubility in water [1] was “Soluble”, the IC50 (TYK2) was 0.653 µM and the IC50 (JAK2) was 0.462 µM. The “Change in XRPD compared with initial crystal form” value [2, 4] was “no significant change”, the “Change in appearance compared with initial crystal form” value [2, 4] was “no significant change” and the “Content of compound shown in formula I” value ([2]; initial) was 99.901%. The “Content of compound shown in formula I” value ([2]; placed at 25° C./75%-RH for 30 days) was 99.899%, the “Content of compound shown in formula I” value ([2]; placed at 40° C./75%-RH for 30 days) was 99.905% and the Cmax (Single dose PK study) was 0.456 µg/mL. The AUClast (Single dose PK study; up to 24 hours) was 1.39 µg·h/mL, the Hygroscopic weight gain (Hygroscopicity study) was 2.4% and the IC50 (JAK1) was 0.145 µM. For the same compound, the “Crystal form of the solid after stirring in saturated solution (XRPD)” value (“Crystal form of the solid after stirring” below) [3] was “still crystal form A” and the IC50 (JAK3) was 5.52 µM.
`O=C(Nc1cn2c(-c3ccc(CN4CCS(=O)(=O)CC4)cc3F)cccc2n1)C1CC1` [Crystal form C] gave a Hygroscopic weight gain (Hygroscopicity study) of 6.1%.
In the case of `O=C(Nc1cn2c(-c3ccc(CN4CCS(=O)(=O)CC4)cc3F)cccc2n1)C1CC1` [Crystal form D], the Hygroscopic weight gain (Hygroscopicity study) is reported as 8.1%.
With `O=C(Nc1cn2c(-c3ccc(CN4CCS(=O)(=O)CC4)cc3F)cccc2n1)C1CC1` [Crystal form E] the Hygroscopic weight gain (Hygroscopicity study) was 5.3% and the “Crystal form of the solid after stirring” value [3] was “transformed into crystal form A”.
With `O=C(Nc1cn2c(-c3ccc(CN4CCS(=O)(=O)CC4)cc3F)cccc2n1)C1CC1` [Crystal form F] the Hygroscopic weight gain (Hygroscopicity study) was 4.9% and the “Crystal form of the solid after stirring” value [3] was “transformed into crystal form A”.
With `O=C(Nc1cn2c(-c3ccc(CN4CCS(=O)(=O)CC4)cc3F)cccc2n1)C1CC1` [Free base] the Solubility in ethanol [1, 5] was “Slightly soluble”, the Solubility in methanol [1, 5] was “Slightly soluble” and the “Solubility in simulated gastric juice” value [1, 5] was “Insoluble”. The Solubility in water [1, 5] was “Very slightly soluble”, the Cmax (Single dose PK study; female, SD, rat, po, 3 mg/kg, read-out: Cmax) was 0.352 µg/mL and the AUC(0-t) (Single dose PK study; female, SD, rat, po, 3 mg/kg, up to 24 hours) was 0.987 µg·h/mL.

From patent US12637457B2, “Salt form and crystal form of JAK inhibitor, preparation method therefor, and use thereof” (SHANGHAI FUDAN-ZHANGJIANG BIO-PHARMACEUTICAL CO., LTD., priority 2020, dated 2026)
